Assay results from the supplement of paper PMC11208160.

Experiment: recombinant barcode read abundance after kanamycin selection (control-corrected) (log10(CPM+1)); higher = more efficient recombination; sequences stand for … in AGTGCAGAGAAAATCGGCCAGTTTTCTCTGCCTGCAGTCCGCATGCCGT…AGATTTATGCAGCGGACTGCCTTTCTCCCAAAGTGATAAACCGGACAGTATCATGGACCGGTTTTCCCGGTAATCCGTATTTGCAAGGTTGGTTTCACT; site = the 11-nt target
Summary of the method: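 Duplicate cultures were plated either on chloramphenicol/ampicillin LB agar, serving as control, or on chloramphenicol/ampicillin/kanamycin with 0.1 mM IPTG. These came from a pooled E. coli library co-electroporated with a donor plasmid, each member pairing a target with an IS621 bridge RNA target-binding loop. Recombination efficiency equals averaged, control-corrected counts per million of recombinant-junction barcodes. It is listed as log10(CPM+1).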
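Note: IS621 recombinase and bridge RNA in Escherichia coli cells.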

First: GCTGGGTCTTGGGTTCTAACCTGTTGCCT (site GATGGGTCTAG)
Second: GCTGGGTCTTGGGTTCTAACCTGTTGCCT (site GCTGGGTCTAG)
The “recombinant barcode read abundance (log10)” value of the first is lower: 0.0435 for the first, 0.814 for the second.

Compared with “GCTTACCCTTGGGTTCTAACCTGTTGCTA (site GCTTACCCTTA)”, “GCTTACCCTTGGGTTCTAACCTGTTGCTA (site TAGCTAGCTAC)” is lower in “recombinant barcode read abundance (log10)” value: 0.36 for the first, 0.0382 for the second.

“GCTTCGGCTTGGGTTCTAACCTGTTGCCT (site GCATCGGCTAG)” and “GCTTCGGCTTGGGTTCTAACCTGTTGCCT (site GCCTCGGCTAG)” are within 0.2 log units of each other in “recombinant barcode read abundance (log10)” value: 0.193 for the first, 0.0138 for the second.

First: GCTTCGGCTTGGGTTCTAACCTGTTGCCT (site GCGTCGGCTAG)
Second: GCTTCGGCTTGGGTTCTAACCTGTTGCCT (site GCTTCGGCTAG)
The “recombinant barcode read abundance (log10)” value of the first is lower: 0.0514 for the first, 0.282 for the second.

Compared with “GCTTGAACTTGGGTTCTAACCTGTTGCTT (site GCTTGAACTAA)”, “GCTTGAACTTGGGTTCTAACCTGTTGCTT (site GGTTGAACTAT)” is lower in “recombinant barcode read abundance (log10)” value: 0.292 for the first, 0.0501 for the second.

“GCTTGGCCTTGGGTTCTAACCTGTTGCCT (site CCTTGGTCTAG)” and “GCTTGGCCTTGGGTTCTAACCTGTTGCCT (site GCTTGGCCTAG)” are within 0.2 log units of each other in “recombinant barcode read abundance (log10)” value: 0.211 for the first, 0.188 for the second.

Going from “GCTTGGTCTTGGGTTCTAACCTGTTGCGA (site CTAGCTCCTAA)” to “GCTTGGTCTTGGGTTCTAACCTGTTGCGA (site GCTTGGTCTTC)”, the “recombinant barcode read abundance (log10)” value rises from 0.173 to 1.57.

Going from “GGAAAGACTTGGGTTCTAACCTGTTGCCT (site GGAAAGACTAG)” to “GGAAAGACTTGGGTTCTAACCTGTTGCCT (site GGCAAGACTAG)”, the “recombinant barcode read abundance (log10)” value falls from 1.58 to 0.18.

Compared with “GGAAAGACTTGGGTTCTAACCTGTTGCCT (site GGGAAGACTAG)”, “GGAAAGACTTGGGTTCTAACCTGTTGCCT (site GGTAAGACTAG)” is higher in “recombinant barcode read abundance (log10)” value: 0.297 for the first, 0.505 for the second.

First: GGAAGCTCTTGGGTTCTAACCTGTTGCTT (site GGAAGCTCTAA)
Second: GGAAGCTCTTGGGTTCTAACCTGTTGCTT (site GTACGCTCTAA)
The “recombinant barcode read abundance (log10)” value of the first is higher: 0.591 for the first, 0.0116 for the second.

Going from “GGAAGGTCTTGGGTTCTAACCTGTTGCAT (site ACGTCCACTTG)” to “GGAAGGTCTTGGGTTCTAACCTGTTGCAT (site GGAAGGTCTAT)”, the “recombinant barcode read abundance (log10)” value rises from 0.0537 to 1.98.

Going from “GGAATGACTTGGGTTCTAACCTGTTGCCT (site GAAATGACTAG)” to “GGAATGACTTGGGTTCTAACCTGTTGCCT (site GCAATGACTAG)”, the “recombinant barcode read abundance (log10)” value rises from 0.344 to 0.726.

First: GGAATGACTTGGGTTCTAACCTGTTGCCT (site GGAATGACTAG)
Second: GGAATGACTTGGGTTCTAACCTGTTGCCT (site GTAATGACTAG)
The “recombinant barcode read abundance (log10)” value of the first is higher: 2.02 for the first, 0.545 for the second.

Compared with “GGACCATCTTGGGTTCTAACCTGTTGCCT (site GGACAATCTAG)”, “GGACCATCTTGGGTTCTAACCTGTTGCCT (site GGACCATCTAG)” is higher in “recombinant barcode read abundance (log10)” value: 0.29 for the first, 0.915 for the second.

“GGACCATCTTGGGTTCTAACCTGTTGCCT (site GGACGATCTAG)” and “GGACCATCTTGGGTTCTAACCTGTTGCCT (site GGACTATCTAG)” are within 0.2 log units of each other in “recombinant barcode read abundance (log10)” value: 0.146 for the first, 0.276 for the second.

First: GGACCCTCTTGGGTTCTAACCTGTTGCCT (site AGACCCTCTAG)
Second: GGACCCTCTTGGGTTCTAACCTGTTGCCT (site CGACCCTCTAG)
The “recombinant barcode read abundance (log10)” value of the first is higher: 1.09 for the first, 0.406 for the second.

First: GGACCCTCTTGGGTTCTAACCTGTTGCCT (site GGACCCTCTAG)
Second: GGACCCTCTTGGGTTCTAACCTGTTGCCT (site TGACCCTCTAG)
The “recombinant barcode read abundance (log10)” value of the first is higher: 1.96 for the first, 0.353 for the second.

First: GGACCTCCTTGGGTTCTAACCTGTTGCAT (site GGACCTCCTAA)
Second: GGACCTCCTTGGGTTCTAACCTGTTGCAT (site GGACCTCCTAC)
The “recombinant barcode read abundance (log10)” value of the first is lower: 0.342 for the first, 0.805 for the second.

First: GGACCTCCTTGGGTTCTAACCTGTTGCAT (site GGACCTCCTAG)
Second: GGACCTCCTTGGGTTCTAACCTGTTGCAT (site GGACCTCCTAT)
The “recombinant barcode read abundance (log10)” value of the first is lower: 0.0883 for the first, 1.96 for the second.

Compared with “GGACCTCCTTGGGTTCTAACCTGTTGCGT (site GGACCTCCTAA)”, “GGACCTCCTTGGGTTCTAACCTGTTGCGT (site GGACCTCCTAC)” is higher in “recombinant barcode read abundance (log10)” value: 0.503 for the first, 3.05 for the second.

Compared with “GGACCTCCTTGGGTTCTAACCTGTTGCGT (site GGACCTCCTAG)”, “GGACCTCCTTGGGTTCTAACCTGTTGCGT (site GGACCTCCTAT)” is higher in “recombinant barcode read abundance (log10)” value: 0.272 for the first, 1.71 for the second.

First: GGACGATCTTGGGTTCTAACCTGTTGCCT (site GGACAATCTAG)
Second: GGACGATCTTGGGTTCTAACCTGTTGCCT (site GGACCATCTAG)
The “recombinant barcode read abundance (log10)” value of the first is higher: 0.471 for the first, 0.0164 for the second.

Compared with “GGACGATCTTGGGTTCTAACCTGTTGCCT (site GGACGATCTAG)”, “GGACGATCTTGGGTTCTAACCTGTTGCCT (site GGACTATCTAG)” is lower in “recombinant barcode read abundance (log10)” value: 1.54 for the first, 0.357 for the second.

Compared with “GGACGCGCTTGGGTTCTAACCTGTTGCGG (site GGACGCGCTCC)”, “GGACGCGCTTGGGTTCTAACCTGTTGCGG (site GGGCCCGCTCC)” is lower in “recombinant barcode read abundance (log10)” value: 2.43 for the first, 0.075 for the second.

Going from “GGACGGCCTTGGGTTCTAACCTGTTGCCT (site GGACGACCTAG)” to “GGACGGCCTTGGGTTCTAACCTGTTGCCT (site GGACGCCCTAG)”, the “recombinant barcode read abundance (log10)” value falls from 0.523 to 0.133.

First: GGACGGCCTTGGGTTCTAACCTGTTGCCT (site GGACGGCCTAG)
Second: GGACGGCCTTGGGTTCTAACCTGTTGCCT (site GGACGTCCTAG)
The “recombinant barcode read abundance (log10)” value of the first is higher: 1.35 for the first, 0 for the second.

Going from “GGAGAAGCTTGGGTTCTAACCTGTTGCCT (site GGAGAAGCTAG)” to “GGAGAAGCTTGGGTTCTAACCTGTTGCCT (site GGAGACGCTAG)”, the “recombinant barcode read abundance (log10)” value falls from 2.11 to 0.569.

First: GGAGAAGCTTGGGTTCTAACCTGTTGCCT (site GGAGAGGCTAG)
Second: GGAGAAGCTTGGGTTCTAACCTGTTGCCT (site GGAGATGCTAG)
The “recombinant barcode read abundance (log10)” value of the first is higher: 1.15 for the first, 0.158 for the second.

Compared with “GGAGCTTCTTGGGTTCTAACCTGTTGCCT (site GGAGCTTCTAG)”, “GGAGCTTCTTGGGTTCTAACCTGTTGCCT (site GTACCTTCTAG)” is lower in “recombinant barcode read abundance (log10)” value: 1.33 for the first, 0.256 for the second.

Compared with “GGAGGTCCTTGGGTTCTAACCTGTTGCCG (site ACTCAGACTGT)”, “GGAGGTCCTTGGGTTCTAACCTGTTGCCG (site GGAGGTCCTCG)” is higher in “recombinant barcode read abundance (log10)” value: 0.161 for the first, 1.79 for the second.

Compared with “GGAGTCCCTTGGGTTCTAACCTGTTGCGA (site GGAGTCCCTTC)”, “GGAGTCCCTTGGGTTCTAACCTGTTGCGA (site GGATTCCCTTG)” is lower in “recombinant barcode read abundance (log10)” value: 2.39 for the first, 0.0458 for the second.

Going from “GGATACACTTGGGTTCTAACCTGTTGCCA (site GGATACACTTG)” to “GGATACACTTGGGTTCTAACCTGTTGCCA (site GGATCCACTTG)”, the “recombinant barcode read abundance (log10)” value falls from 1.35 to 0.041.

Compared with “GGATACACTTGGGTTCTAACCTGTTGCCA (site GGATGCACTTG)”, “GGATACACTTGGGTTCTAACCTGTTGCCA (site GGATTCACTTG)” is higher in “recombinant barcode read abundance (log10)” value: 0.0123 for the first, 0.274 for the second.

Going from “GGATGGACTTGGGTTCTAACCTGTTGCTT (site GGATAGCCTAA)” to “GGATGGACTTGGGTTCTAACCTGTTGCTT (site GGATGGACTAA)”, the “recombinant barcode read abundance (log10)” value rises from 0.0315 to 1.96.

First: GGCAAACCTTGGGTTCTAACCTGTTGCGG (site CATGGGACTAT)
Second: GGCAAACCTTGGGTTCTAACCTGTTGCGG (site GGCAAACCTCC)
The “recombinant barcode read abundance (log10)” value of the first is lower: 0.0629 for the first, 2.09 for the second.

“GGCAACTCTTGGGTTCTAACCTGTTGCCT (site AAGTTAGCTCC)” and “GGCAACTCTTGGGTTCTAACCTGTTGCCT (site GGCAACTCTAG)” are within 0.2 log units of each other in “recombinant barcode read abundance (log10)” value: 0 for the first, 0.0853 for the second.

Compared with “GGCACCGCTTGGGTTCTAACCTGTTGCCT (site GGCACAGCTAG)”, “GGCACCGCTTGGGTTCTAACCTGTTGCCT (site GGCACCGCTAG)” is higher in “recombinant barcode read abundance (log10)” value: 0.0859 for the first, 0.905 for the second.

“GGCACCGCTTGGGTTCTAACCTGTTGCCT (site GGCACGGCTAG)” and “GGCACCGCTTGGGTTCTAACCTGTTGCCT (site GGCACTGCTAG)” are within 0.2 log units of each other in “recombinant barcode read abundance (log10)” value: 0.164 for the first, 0.0527 for the second.

With “GGCAGACCTTGGGTTCTAACCTGTTGCCT (site GGCAGACCTAG)” the “recombinant barcode read abundance (log10)” value was 1.
